According to publication PMC6987128, “Target protein-oriented isolation of Hes1 dimer inhibitors using protein based methods” (Scientific Reports, 2020):

Tested on: C17.2 mouse neural stem cells
Experiment: Neural stem cell differentiation assay (Tuj1/GFAP immunofluorescence staining)
Assay type: cell-based
Settings: C17.2 cells, 6 days; for increase of neurons compared to control: vs DMSO control
Source text: We recently developed another protein-based screening method, the target protein oriented natural products isolation method (TPO-NAPI) using protein beads (Fig. 2B). Agalloside, inohanamine, α-mangostine, BE-14106, isomicromonolactam, staurosporin and linarin were isolated as Hes1 binding compounds using the TPO-NAPI method[15],[17]. Rat Hes1 (1–95) containing basic and helix-loop-helix domains was immobilized because the helix-loop-helix domain is known to be important for Hes1-Hes1 interaction; therefore, utilizing this domain in the beads method would likely be effective for screening Hes1 dimer inhibitors. GST-Hes1 immobilized beads were prepared by mixing freshly prepared GST-Hes1 protein with glutathione Sepharose 4B beads. GST-only beads were prepared as a control. After incubating the beads with plant MeOH extracts at 4 °C for 2 h, bound compounds were eluted by adding EtOH and heating at 100 °C for 3 min, then the eluted compounds were analyzed by HPLC. […] The MeOH extract (64.6 g) of Terminalia chebula bark was partitioned with hexane, EtOAc and BuOH to obtain hexane (1.5 g), EtOAc (3.6 g), BuOH (42.6 g), and aqueous (20.5 g) soluble fractions. The EtOAc fraction contained the target peak and was subjected to silica gel column chromatography to give eight fractions (1A-H). Fraction 1D contained the target peak and was separated by ODS column chromatography and reverse-phase HPLC to give compound 11 (0.4 mg). Compound 11 was identified as 4-O-(4″-O-galloyl-α-L-rhamnopyranosyl)ellagic acid by comparison of its NMR data with reported spectral data[37]. […] This is the strongest Hes1 dimer inhibitor reported to date. The ability of 11 to accelerate the differentiation of C17.2 mouse neural stem cells was evaluated (Fig. 5). C17.2 cells (2 × 10^5 cells/mL) were seeded in a poly-L-lysine-coated 24 well plates and incubated for 24 h, then the cells were treated with DMSO (control), 100 μM valproic acid (VPA), 5 μM retinoic acid (RA) (positive controls) or 11 (1 or 5 μM) for 6 days. A confocal microscope was used to obtain images of differentiated neural cells after immunostaining class III β-tubulin (Tuj1) in neurons, and glial fibrillary acidic protein (GFAP) in astrocytes and nuclei (TO-PRO-3). […] In contrast, the control dish containing cells treated with DMSO contained small number of neurons.
C17.2 cells were cultured in proliferation medium [DMEM (DS Pharma Biomedical Co., Ltd. Osaka, Japan) supplemented with 10% fetal bovine serum (Biowest, Nuaillé, France), 5% horse serum (Gibco, Life Technologies, Tokyo, Japan)]. Neural differentiation of C17.2 cells was initiated by transferring the cells to differentiation medium [Neurobasal Medium (Gibco) supplemented with 2% B-27 without vitamin A (Gibco), 1% antibiotic-antimycotic (Gibco)]. All cultures were maintained in a humidified incubator at 37 °C in 5% CO2/95% air.
C17.2 cells were dissociated using the proliferation medium 2 × 10^5 cells/mL on cover glass (MATSUNAMI GLASS) coated with poly-L-lysine and fibronectin/laminin. After incubation for 24 h, cells were washed with D-MEM and treated with individual compounds in differentiation medium for 6 days.
C17.2 cells were fixed with 4% paraformaldehyde in PBS for 20 min at room temperature (r.t.) and washed with 1% BSA in PBS three times. After blocking with 10% BSA in 0.3% Triton X-100 in PBS for 45 min at r.t., fixed cells were incubated with primary antibodies (anti-βIII-Tubulin; Neuronal Class III, Mouse-Mono, 1:400, R&D Systems^TM; anti-GFAP, 1:400, VERITAS) for 12 h at 4 °C. After washing three times with 1% BSA in PBS (500 μL/well), cells were incubated with secondary antibodies (Alexa Fluor® 488 goat anti-mouse IgG (H + L), 1:400, Life Technologies; Alexa Fluor® 555 goat ant-rabbit IgG (H + L), 1:200, Life Technologies) for 1 hr at r.t. in the dark. […]

SMILES: CC1OC(Oc2cc3c(=O)oc4c(O)c(O)cc5c(=O)oc(c2O)c3c45)C(O)C(O)C1OC(=O)c1cc(O)c(O)c(O)c1 [Compound 11, 4-O-(4″-O-galloyl-α-L-rhamnopyranosyl)ellagic acid]
- differentiated neurons (1 µM): 33.6%
- increase of neurons compared to control (1 µM): 67%
- differentiated neurons (5 µM): 45.4%
- increase of neurons compared to control (5 µM): 125%
